Earlier results on 1 molecule are cited in patent US5872104A, “Combinations and methods for reducing antimicrobial resistance” (Oridigm Corporation, priority 1994, dated 1999).

The subject of data set [1] is Staphylococcus aureus, methicillin susceptible. The note with it: in µg/mL; cited from earlier work.
Data set [2] concerns Staphylococcus aureus, methicillin resistant. The note with it: cited from earlier work.
For data set [3], the system named is Streptococcus pyogenes (group A), erythromycin susceptible. The note with it: cited from earlier work.
The subject of the next data set is Streptococcus pneumoniae. To be noted: in µg/mL; cited from earlier work.
The test system of data set [4] is Streptococcus agalactactiae (group B). The note with it: in µg/mL; cited from earlier work.
For the next data set, the system named is Viridans streptococci. To be noted: cited from earlier work.
Another data set concerns Listeria monocytogenes. The note with it: in µg/mL; cited from earlier work.
The next data set relates to Haemophilus influenzae. To be noted: in µg/mL; cited from earlier work.
In a further data set the test system is Moraxella catarrhalis. The note with it: in µg/mL; cited from earlier work.
In another data set the test system is Neisseria gonorrhoeae. To be noted: in µg/mL; cited from earlier work.
For the next data set, the system named is Legionella pneumophila. The note with it: in µg/mL; cited from earlier work.
The subject of another data set is Campylobacter species. The note with it: in µg/mL; cited from earlier work.
In the next data set the test system is Bacteroides fragilis. To be noted: anaerobes; in µg/mL; cited from earlier work.
Another data set has as its system Clostridium perfringens. The note with it: anaerobes; in µg/mL; cited from earlier work.
The subject of data set [5] is Chlamydia pneumoniae (formerly TWAR). The note with it: in µg/mL; cited from earlier work.
Another data set has as its system Chlamydia trachomatis. To be noted: in µg/mL; cited from earlier work.
In a further data set the test system is Mycoplasma pneumoniae. The note with it: in µg/mL; cited from earlier work.
For data set [6] the following is noted: versus erythromycin; cited from earlier work.
The test system of a further data set is H. influenzae. To be noted: versus erythromycin; cited from earlier work.

Values after ≈ are worked out from the molar mass of the structure shown.

As to `CC[C@H]1OC(=O)[C@H](C)[C@@H](O[C@H]2C[C@@](C)(OC)[C@@H](O)[C@H](C)O2)[C@H](C)[C@@H](O[C@@H]2O[C@H](C)C[C@H](N(C)C)[C@H]2O)[C@](C)(OC)C[C@@H](C)C(=O)[C@H](C)[C@@H](O)[C@]1(C)O` [Clarithromycin], the MIC90 in data set [1] was 0.12-0.24; in data set [2] it was above 128 µg/mL; in [3], 0.015 µg/mL (≈ 0.0201 µM); with Streptococcus pneumoniae it was 0.015; in data set [4] it was 0.03-0.25; in the data set with Viridans streptococci it was 0.03 µg/mL (≈ 0.0401 µM). Besides, the MIC90 in the data set with Listeria monocytogenes is given as 0.12-2.0; in the data set on Haemophilus influenzae, 2.0-16.0; in the data set on Moraxella catarrhalis, 0.25-1.0; in the data set with Neisseria gonorrhoeae, 0.25-2.0; in the data set with Legionella pneumophila, 0.25; with Campylobacter species, 1.0-8.0. The MIC90 in the data set on Bacteroides fragilis is 2.0-8.0; in the data set on Clostridium perfringens, 0.5-2.0; in data set [5], 0.007; in the data set on Chlamydia trachomatis, 0.06-0.125; with Mycoplasma pneumoniae, 0.008-0.03. Besides, in data set [6], the stability result was “better stability properties”. The H. influenzae activity entry in the data set with H. influenzae is “enhanced H. influenzae activity”.
